Assay results published in US20130143969A1 (THE OHIO STATE UNIVERSITY, priority 2010, published 2013).

Tests used:
DNMT1 [1] = experiment: DNMT1 mRNA and protein in MV4-11 engrafted tumor tissues; type: in vivo; details: MV4-11 engrafted mice, curcumin i.p. 100 mg/kg
Method: (§1) Cells or tumor tissues were homogenized and lysed in ice-cold lysis buffer (20 mM, pH 7.0 HEPES, 150 mM NaCl, 0.1% NP40 supplemented with 1 mM β-glycerophosphate, 1 mM Na3VO4, 1 mM NaF, 1 mM benzamide and 1 mM phenylmethylsulfonyl fluoride) with protease inhibitors (Protease Inhibitor cocktail Set III, Calbiochem-Novabiochem Corporation, La Jolla, Calif.), and incubated on ice for 20 mM. The lysate was centrifuged at 12,000 g for 10 mM at 4° C. Proteins in the supernatants were resolved on 4-15% SDS-polyacrylamide gradient gels, and then transferred onto nitrocellulose membranes, incubated with appropriate antibodies and subjected to Western blotting. The immunoblotted proteins were detected by ECL reagent (GE Healthcare Bio-Sciences Corp., Piscataway, N.J.).
Quantitative RT-PCR was used to quantify the mRNA levels of DNMT1, DNMT3a, DNMT3b, p15INK4B and p21. Total RNA was extracted with Trizol reagent (Invitrogen, Carlsbad, Calif.) and reverse transcribed by reverse transcriptase (Invitrogen). Quantitative real-time PCR reactions were performed in triplicate using Taqman gene expression assay (Applied Biosystems) with an ABI prism 7700 detector (Applied Biosystems). The target gene values were normalized to the values of internal control GAPDH or 18 S, and expressed as relative percent change (100×2^(˜ΔΔCt)) over non-treated samples. […]

[2] = In-vitro stability of curcumin in mouse plasma at 37° C; type: in vitro ADME
From the text: Therefore, all mouse blood and plasma samples have to be processed on ice to avoid potential degradation for its pharmacokinetic studies.

DNMT1 [3] = experiment: Ex vivo DNMT1 mRNA and protein in AML patient primary blast cells; type: cell-based, human
Method: Cell Cycle and Apoptosis Analysis: MV4-11, ML-1, HL-60 and K562 leukemia cell lines were cultured in RPMI medium (VWR International, Inc., West Chester, Pa.) supplemented with 10% fetal bovine serum (Invitrogen, Carlsbad, Calif.) and 1% (v/v) penicillin/streptomycin (Invitrogen Life Technologies; Carlsbad, Calif.) antibiotic solution at 37° C. in an incubator under 5% CO2 atmosphere. […] The cell cycle and apoptosis of MV4-11 cells was analyzed on a BD FACS Calibur (Beckman Coulter, Fullerton, Calif.) according to the standard protocol provided by the manufacturer.
as §1, with “The lysate was centrifuged at 12,000 g for 10 mM at 4° C. Proteins in the supernatants were resolved on 4-15% SDS-polyacrylamide gradient gels, and then transferred onto nitrocellulose membranes, incubated with appropriate antibodies and subjected to Western blotting.” left out
Quantitative RT-PCR was used to quantify the mRNA levels of DNMT1, DNMT3a, DNMT3b, p15INK4B and p21. […] Quantitative real-time PCR reactions were performed in triplicate using Taqman gene expression assay (Applied Biosystems) with an ABI prism 7700 detector (Applied Biosystems). […]

SMILES: COc1cc(/C=C/C(=O)CC(=O)/C=C/c2ccc(O)c(OC)c2)ccc1O [curcumin]
- mRNA level of DNMT1 in engrafted tissues (DNMT1 [1]): significantly decreases
- protein level of DNMT1 in engrafted tissues, decrease (DNMT1 [1]): 50%
- half-life [2]: 23.6 min
- curcumin level (below detection limit) ([2]; by 4 hour): < 1 ng/mL
- curcumin decomposed ([2]; in 2 hours): more than 97%
- DNMT1 mRNA (DNMT1 [3]): down-regulate
- DNMT1 protein level (DNMT1 [3]): down-regulate
